# From patent publication US11999727B2 (Tango Therapeutics, Inc., priority 2020, dated 2024)
# Read-outs that look alike come from different tables or passages of the source.
# Columns and labels:
# PRMT5 [1] = target: T1, PRMT5 (Homo sapiens, UniProt O14744); assay: PRMT5 biochemical IC50 assay with SAM as cofactor; details: PRMT5, SAM as cofactor; read-out: SAM IC50
# T1 construct: purchased Viva (custom protein)
# [2] = tested on: HAP1 MTAP-deleted cell line; assay: SDMA in-cell western assay, HAP1 MTAP-deleted; format: cell-based; details: for IC50: Homo sapiens; for MTAP intact/deleted ratio: IC50 ratio HAP1 MTAP-intact / HAP1 MTAP-deleted, SDMA in-cell western
# In short: (§1)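 IC50 values come from SDMA signal quantified by in-cell western in two HAP1 lines, one with native MTAP levels and one lacking MTAP.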
# [3] = tested on: HAP1 MTAP-deleted cell line; assay: Viability assay, MTAP-deleted cell line; format: cell-based; details: Homo sapiens
# Source text: Table 1 additionally indicates IC50 values in a viability assay for the MTAP-deleted cell line (column 10), indicating the effect of treatment with compound on cell survival.
# PRMT5 [4] = target: T1, PRMT5; assay: PRMT5 biochemical IC50 assay with no cofactor; details: PRMT5, no cofactor; read-out: No Cofactor/rel IC50
# Source text: Table 1 indicates IC50 values (μM) against PRMT5 for exemplary compounds in the presence of SAM as cofactor, with no cofactor, and with MTA as cofactor, respectively (columns 4-6). […] Ki values can be calculated from the IC50 values as described in the Examples section. As detailed in the Examples section, for the assay performed in the presence of SAM, IC50=Ki×1.5 (Ki=IC50/1.5).
# [5] = tested on: HAP1 MTAP-intact cell line; assay: SDMA in-cell western assay, HAP1 MTAP-intact; format: cell-based; details: Homo sapiens
# In short: as §1
# PRMT5 [6] = target: T1, PRMT5; assay: PRMT5 biochemical IC50 assay with MTA as cofactor; details: PRMT5, MTA as cofactor; read-out: MTA IC50
# [7] = HAP1, SDMA in-cell western, HAP1 MTAP-deleted, read-out: HAP 1 MTAP deleted IC50
# [8] = HAP1, viability IC50, MTAP-deleted cell line, read-out: HAP1 MTAP deleted viability
# [9] = HAP1, SDMA in-cell western, HAP1 MTAP-intact, read-out: MTAP HAP1 intact IC50
# [10] = HAP1, read-out: HAP1 MTAP deleted IC50
# [11] = HAP1, read-out: HAP1 MTAP deleted viability
# [12] = HAP1, read-out: MTAP HAP1 intact IC50
# T1 sequence (O14744 whole entry): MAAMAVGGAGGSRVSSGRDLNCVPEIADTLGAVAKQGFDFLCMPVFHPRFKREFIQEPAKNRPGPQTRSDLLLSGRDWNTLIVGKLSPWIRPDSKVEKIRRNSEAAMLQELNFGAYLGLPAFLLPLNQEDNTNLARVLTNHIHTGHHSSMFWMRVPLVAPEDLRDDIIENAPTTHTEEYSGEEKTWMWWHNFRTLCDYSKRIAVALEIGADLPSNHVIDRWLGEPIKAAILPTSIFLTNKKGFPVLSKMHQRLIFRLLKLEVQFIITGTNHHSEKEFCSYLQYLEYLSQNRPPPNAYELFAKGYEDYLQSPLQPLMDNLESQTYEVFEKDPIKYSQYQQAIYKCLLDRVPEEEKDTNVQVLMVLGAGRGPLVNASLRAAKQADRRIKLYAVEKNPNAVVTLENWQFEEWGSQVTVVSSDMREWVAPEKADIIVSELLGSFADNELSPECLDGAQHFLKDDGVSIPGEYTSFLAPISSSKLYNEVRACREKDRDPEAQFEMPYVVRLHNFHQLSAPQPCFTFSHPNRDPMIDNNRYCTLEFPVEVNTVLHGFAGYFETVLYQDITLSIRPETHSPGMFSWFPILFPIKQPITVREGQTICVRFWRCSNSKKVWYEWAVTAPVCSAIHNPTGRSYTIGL
# T1 sequence (Q9BQA1 whole entry partner): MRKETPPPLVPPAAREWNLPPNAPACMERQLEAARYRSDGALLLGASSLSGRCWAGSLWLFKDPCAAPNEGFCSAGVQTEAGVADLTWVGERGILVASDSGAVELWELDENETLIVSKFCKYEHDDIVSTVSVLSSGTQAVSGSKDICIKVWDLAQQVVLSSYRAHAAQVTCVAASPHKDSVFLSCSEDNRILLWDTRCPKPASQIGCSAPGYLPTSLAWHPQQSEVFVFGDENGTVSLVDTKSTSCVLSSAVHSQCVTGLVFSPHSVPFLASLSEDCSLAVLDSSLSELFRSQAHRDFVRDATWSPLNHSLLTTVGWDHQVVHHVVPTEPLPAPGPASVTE
Structure (SMILES),IC50 (PRMT5 [1]) [nM],"IC50 [2, 7] [nM]",MTAP intact/deleted ratio [2],"IC50 [3, 8] [µM]",IC50 (PRMT5 [4]) [nM],"IC50 [5, 9] [nM]",IC50 (PRMT5 [6]) [nM],"IC50 [2, 10] [nM]","IC50 [3, 11] [µM]","IC50 [5, 12] [nM]"
"Cc1cc(NC(=O)C(=O)N2C[C@@H](C)CC[C@@H]2c2cnc3[nH]ncc3c2)cnc1N (single isomer, unassigned) [Compound 573]",> 500,> 1000,C (an IC50 ratio of less than 3 fold),> 10,> 500,> 1000,> 500,–,–,–
"C[C@H]1CC[C@H](c2cnc3[nH]ncc3c2)N(C(=O)C(=O)Nc2cncc(C(N)=O)c2)C1 (single isomer, unassigned) [Compound 574]",50 to 500,> 1000,B (an IC50 ratio greater than or equal to 3 fold but lower than 10 fold),> 10,50 to 500,> 1000,50 to 500,–,–,–
"Cc1cc(NC(=O)C(=O)N2C[C@@H](C)CC[C@@H]2c2ccc(C(F)(F)F)cc2)cnc1N (single isomer, unassigned) [Compound 575]",> 500,> 1000,C (an IC50 ratio of less than 3 fold),> 10,> 500,> 1000,> 500,–,–,–
"CC[C@@H]1CC[C@@H](c2ccccc2)N(C(=O)C(=O)Nc2cncc(C(N)=O)c2)C1 (single isomer, unassigned) [Compound 576]",> 500,> 1000,C (an IC50 ratio of less than 3 fold),> 10,> 500,> 1000,> 500,–,–,–
"C[C@@H]1CC[C@@H](c2ccccn2)N(C(=O)C(=O)Nc2cncc(C(N)=O)c2)C1 (single isomer, unassigned) [Compound 578]",> 500,> 1000,C (an IC50 ratio of less than 3 fold),> 10,> 500,> 1000,> 500,–,–,–
"CCc1cc(NC(=O)C(=O)N2C[C@H](C)CC[C@H]2c2ccc3[nH]ncc3c2)cnc1N (single isomer, unassigned) [Compound 579]",> 500,> 1000,B (an IC50 ratio greater than or equal to 3 fold but lower than 10 fold),> 10,> 500,> 1000,> 500,–,–,–
"Cc1cc(NC(=O)C(=O)N2C[C@H](C)CC[C@H]2c2ccc3c(c2)CNC3=O)cnc1N (single isomer, unassigned) [Compound 581]",< 50,< 100,A (an IC50 ratio greater than or equal to 10 fold),1 to 10,50 to 500,100 to 1000,50 to 500,–,–,–
"C[C@H]1CC[C@H](c2ccc3sccc3c2)N(C(=O)C(=O)Nc2cncc(C(N)=O)c2)C1 (single isomer, unassigned) [Compound 585]",< 50,< 100,A (an IC50 ratio greater than or equal to 10 fold),< 1,< 50,100 to 1000,< 50,–,–,–
"C[C@@H]1CC[C@@H](c2ccc3sccc3c2)N(C(=O)C(=O)Nc2cncc(C(N)=O)c2)C1 (single isomer, unassigned) [Compound 586]",> 500,> 1000,B (an IC50 ratio greater than or equal to 3 fold but lower than 10 fold),> 10,> 500,> 1000,> 500,–,–,–
"CCc1cc(NC(=O)C(=O)N2C[C@@H](C)CC[C@@H]2c2ccc3[nH]ncc3c2)cnc1N (single isomer, unassigned) [Compound 589]",< 50,< 100,A (an IC50 ratio greater than or equal to 10 fold),< 1,< 50,100 to 1000,< 50,–,–,–
"C[C@H]1CC[C@H](c2ccccn2)N(C(=O)C(=O)Nc2cncc(C(N)=O)c2)C1 (single isomer, unassigned) [Compound 590]",< 50,< 100,A (an IC50 ratio greater than or equal to 10 fold),1 to 10,50 to 500,> 1000,< 50,–,–,–
"Cc1cc(NC(=O)C(=O)N2C[C@@H](C)CC[C@@H]2c2ccc3c(c2)CNC3=O)cnc1N (single isomer, unassigned) [Compound 591]",> 500,> 1000,C (an IC50 ratio of less than 3 fold),> 10,> 500,> 1000,> 500,–,–,–
"Cc1cc(NC(=O)C(=O)N2C[C@H](C)CC[C@H]2c2ccncc2)cnc1N (single isomer, unassigned) [Compound 592]",50 to 500,< 100,A (an IC50 ratio greater than or equal to 10 fold),1 to 10,< 50,100 to 1000,50 to 500,–,–,–
"Cc1cc([C@H]2CC[C@H](C)CN2C(=O)C(=O)Nc2cnc(N)c(C)c2)ccn1 (single isomer, unassigned) [Compound 593]",> 500,> 1000,B (an IC50 ratio greater than or equal to 3 fold but lower than 10 fold),> 10,> 500,> 1000,> 500,–,–,–
"Cc1cc(NC(=O)C(=O)N2C[C@H](C)CC[C@H]2c2ccc(F)c(Cl)c2)cnc1N (single isomer, unassigned) [Compound 596]",50 to 500,< 100,A (an IC50 ratio greater than or equal to 10 fold),< 1,< 50,100 to 1000,< 50,–,–,–
"CC(=O)Oc1ccc([C@H]2CC[C@H](C)CN2C(=O)C(=O)Nc2cnc(N)c(C)c2)cc1 (single isomer, unassigned) [Compound 597]",> 500,> 1000,B (an IC50 ratio greater than or equal to 3 fold but lower than 10 fold),> 10,> 500,> 1000,> 500,–,–,–
"C[C@H]1CC[C@H](c2ccc3c(c2)OCCN3)N(C(=O)C(=O)Nc2cncc(C(N)=O)c2)C1 (single isomer, unassigned) [Compound 598]",< 50,< 100,A (an IC50 ratio greater than or equal to 10 fold),< 1,50 to 500,> 1000,< 50,–,–,–
"CC(=O)Oc1ccc([C@@H]2CC[C@@H](C)CN2C(=O)C(=O)Nc2cncc(C(N)=O)c2)cc1 (single isomer, unassigned) [Compound 599, 4-(1-(2-((5-carbamoylpyridin-3-yl)amino)-2-oxoacetyl)-5-methylpiperidin-2-yl)phenyl acetate]",> 500,> 1000,B (an IC50 ratio greater than or equal to 3 fold but lower than 10 fold),> 10,> 500,> 1000,> 500,–,–,–
"COc1ncc(NC(=O)C(=O)N2C[C@@H](C)CC[C@@H]2c2ccc3scnc3c2)cc1C(N)=O (single isomer, unassigned) [Compound 602]",< 50,–,A (an IC50 ratio greater than or equal to 10 fold),–,< 50,–,< 50,< 100,< 1,100 to 1000
"COc1ncc(NC(=O)C(=O)N2C[C@H](C)CC[C@H]2c2ccc3scnc3c2)cc1C(N)=O (single isomer, unassigned) [Compound 603]",> 500,–,C (an IC50 ratio of less than 3 fold),–,> 500,–,> 500,> 1000,> 10,> 1000
"CC(=O)Oc1ccc([C@H]2CC[C@H](C)CN2C(=O)C(=O)Nc2cncc(C(N)=O)c2)cc1 (single isomer, unassigned) [Compound 604, 4-(1-(2-((5-carbamoylpyridin-3-yl)amino)-2-oxoacetyl)-5-methylpiperidin-2-yl)phenyl acetate]",< 50,< 100,A (an IC50 ratio greater than or equal to 10 fold),< 1,50 to 500,100 to 1000,50 to 500,–,–,–
"Cc1cc(NC(=O)C(=O)N2C[C@@H](C)CC[C@@H]2c2ccc(F)c(Cl)c2)cnc1N (single isomer, unassigned) [Compound 606]",> 500,> 1000,B (an IC50 ratio greater than or equal to 3 fold but lower than 10 fold),> 10,> 500,> 1000,> 500,–,–,–
